Measured values: PMC5998080, “Structural and functional analysis of mRNA export regulation by the nuclear pore complex” (Nature Communications, 2018)

Experiments:
[1] = target: T1, S. cerevisiae Gle1^CTD•Nup42^GBM•Dbp5 (Saccharomyces cerevisiae, UniProt P20449+Q12315); test: size exclusion chromatography, complex formation; format: binding; conditions: 0.5 mM IP6, 20 mM Tris pH 8.0, 100 mM NaCl, 5 mM DTT; IP6 bridges Gle1 and Dbp5
T1 construct: with Nucleoporin NUP42
T1 sequence (Q12315 243-538): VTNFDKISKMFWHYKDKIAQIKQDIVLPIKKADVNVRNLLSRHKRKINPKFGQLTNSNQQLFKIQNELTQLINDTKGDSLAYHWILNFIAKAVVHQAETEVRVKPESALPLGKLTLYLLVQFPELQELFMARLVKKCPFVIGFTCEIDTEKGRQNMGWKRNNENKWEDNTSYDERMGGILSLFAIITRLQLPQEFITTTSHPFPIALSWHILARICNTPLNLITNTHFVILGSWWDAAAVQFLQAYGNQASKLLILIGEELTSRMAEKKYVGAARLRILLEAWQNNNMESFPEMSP
T1 sequence (P20449 1-482): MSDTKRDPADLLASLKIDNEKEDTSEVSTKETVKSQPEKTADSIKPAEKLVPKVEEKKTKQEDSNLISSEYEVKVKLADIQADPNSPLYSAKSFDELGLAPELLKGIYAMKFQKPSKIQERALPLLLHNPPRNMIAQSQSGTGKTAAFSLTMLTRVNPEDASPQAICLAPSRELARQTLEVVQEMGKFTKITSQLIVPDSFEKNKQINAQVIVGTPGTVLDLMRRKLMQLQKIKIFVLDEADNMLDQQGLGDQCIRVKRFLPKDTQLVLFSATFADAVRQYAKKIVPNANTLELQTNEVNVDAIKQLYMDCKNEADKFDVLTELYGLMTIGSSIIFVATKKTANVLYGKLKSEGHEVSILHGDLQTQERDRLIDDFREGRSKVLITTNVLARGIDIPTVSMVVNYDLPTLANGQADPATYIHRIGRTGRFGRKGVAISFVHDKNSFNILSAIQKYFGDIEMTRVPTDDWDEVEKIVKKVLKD
T1 sequence (P49686 397-430 partner): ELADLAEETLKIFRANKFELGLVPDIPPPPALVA

[2] = target: T2, C. thermophilum Gle1^CTD•Nup42^GBM (Thermochaetoides thermophila, UniProt G0S7F3); test: X-ray crystal structure ([…] Å); format: binding; conditions: pH 6.3 MES, zinc sulfate; pocket on Gle1
T2 construct: E. coli; tags cleaved; with Nucleoporin NUP42

[3] = target: T3, S. cerevisiae Gle1^CTD•Nup42^GBM (Saccharomyces cerevisiae, UniProt Q12315); test: isothermal titration calorimetry; format: binding
T3 construct: E. coli; His6 tag cleaved with PreScission; with Nucleoporin NUP42
T3 sequence (Q12315 243-538): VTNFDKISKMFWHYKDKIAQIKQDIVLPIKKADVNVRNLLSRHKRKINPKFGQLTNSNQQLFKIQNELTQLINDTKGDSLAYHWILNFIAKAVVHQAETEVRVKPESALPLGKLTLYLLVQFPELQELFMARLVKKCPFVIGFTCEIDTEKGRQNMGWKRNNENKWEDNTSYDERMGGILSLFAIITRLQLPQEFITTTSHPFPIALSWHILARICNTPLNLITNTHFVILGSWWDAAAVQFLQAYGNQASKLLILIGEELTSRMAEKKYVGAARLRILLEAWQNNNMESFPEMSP
T3 sequence (P49686 397-430 partner): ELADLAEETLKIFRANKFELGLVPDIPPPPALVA

S. cerevisiae Gle1^CTD = target: T4, S. cerevisiae Gle1^CTD (Saccharomyces cerevisiae, UniProt Q12315); test: differential scanning fluorimetry; format: binding; conditions: Tm without to with IP6 (25 µM); no Nup42; 20 mM Tris pH 8.0, 100 mM NaCl, 5 mM DTT
T4 construct: C-terminal domain alone (borders in supplement); His6-scGle1CTD from E. coli, tag cleaved
T4 sequence (Q12315 243-538): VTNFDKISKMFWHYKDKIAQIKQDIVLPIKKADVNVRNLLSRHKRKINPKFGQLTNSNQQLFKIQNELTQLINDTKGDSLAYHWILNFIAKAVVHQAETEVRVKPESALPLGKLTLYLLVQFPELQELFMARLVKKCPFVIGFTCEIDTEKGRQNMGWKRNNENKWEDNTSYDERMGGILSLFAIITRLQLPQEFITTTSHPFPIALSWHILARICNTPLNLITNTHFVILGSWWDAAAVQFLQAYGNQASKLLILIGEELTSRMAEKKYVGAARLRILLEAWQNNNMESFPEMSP

GST-Nup155^CTD = target: T5, GST-Nup155^CTD (human, UniProt O75694 870-1391); test: pull-down; GST-Nup155^CTD (20 μM) preincubated with a twofold molar ratio of Nup98^ΔFG or SUMO-Gle1^N, then with 0-8-fold molar ratios of the other protein; Glutathione Sepharose beads; 20 mM TRIS (pH 8.0), 100 mM NaCl, 5 mM DTT; conditions: both partners purified
T5 construct: human Nup155, C-terminal domain, residues 870-1391; Limits are those printed for Nup155^CTD; source: E. coli BL21-CodonPlus(DE3)-RIL, purified (Glutathione Sepharose, HiTrap Q, Superdex 200); not shown: GST, N-terminal, kept
T5 sequence (looked up): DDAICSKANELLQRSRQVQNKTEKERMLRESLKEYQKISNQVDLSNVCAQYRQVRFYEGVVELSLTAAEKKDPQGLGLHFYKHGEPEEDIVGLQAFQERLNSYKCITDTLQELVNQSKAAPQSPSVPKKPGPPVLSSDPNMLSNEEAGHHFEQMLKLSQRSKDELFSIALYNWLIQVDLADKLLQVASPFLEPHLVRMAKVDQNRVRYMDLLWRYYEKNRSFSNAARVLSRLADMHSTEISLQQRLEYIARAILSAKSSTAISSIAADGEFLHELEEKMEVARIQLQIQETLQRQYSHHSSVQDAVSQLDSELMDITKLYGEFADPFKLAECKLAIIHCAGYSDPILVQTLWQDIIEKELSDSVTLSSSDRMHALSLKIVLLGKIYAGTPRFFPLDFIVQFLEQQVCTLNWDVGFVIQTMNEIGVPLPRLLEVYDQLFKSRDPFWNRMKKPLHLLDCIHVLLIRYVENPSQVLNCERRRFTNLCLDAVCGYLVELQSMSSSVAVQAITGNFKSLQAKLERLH

[4] = target: T6, Nup155 C-terminal domain (Nup155^CTD, residues 870–1391) (human, UniProt O75694 870-1391); test: SEC; Superdex 200 10/300 GL; 20 mM TRIS (pH 8.0), 100 mM NaCl, 5 mM DTT; proteins mixed and incubated 30 min on ice, twofold molar excess of the smaller component; fractions on Coomassie-stained SDS-PAGE; conditions: both partners purified
T6 construct: human Nup155, C-terminal domain, residues 870-1391; also called His6-Nup155^CTD; source: E. coli BL21-CodonPlus(DE3)-RIL, purified (Ni-NTA, HiTrap Q, Superdex 200); not shown: His6, N-terminal, cleaved
T6 sequence (looked up): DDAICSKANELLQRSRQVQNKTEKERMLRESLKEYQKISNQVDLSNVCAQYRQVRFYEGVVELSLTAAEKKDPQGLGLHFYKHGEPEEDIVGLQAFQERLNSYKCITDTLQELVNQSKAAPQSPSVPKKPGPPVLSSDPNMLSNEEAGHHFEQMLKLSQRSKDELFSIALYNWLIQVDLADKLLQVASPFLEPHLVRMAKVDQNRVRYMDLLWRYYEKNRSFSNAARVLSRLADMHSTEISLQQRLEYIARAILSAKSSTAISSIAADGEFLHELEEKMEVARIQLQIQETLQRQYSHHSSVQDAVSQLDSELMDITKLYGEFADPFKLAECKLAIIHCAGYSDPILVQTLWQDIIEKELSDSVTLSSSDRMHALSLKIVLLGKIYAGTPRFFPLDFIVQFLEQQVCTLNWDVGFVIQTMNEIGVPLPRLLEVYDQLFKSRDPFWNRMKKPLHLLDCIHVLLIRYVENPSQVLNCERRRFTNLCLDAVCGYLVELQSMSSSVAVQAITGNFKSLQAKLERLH

DDX19 (wild type) = target: T7, DDX19 (wild type) (Homo sapiens, UniProt Q9UMR2 1-479); test: EMSA; + 1 uM Gle1CTD(382-698)•Nup42GBM(379-423): binding enhanced; 1 mM AMP-PNP, 2 mM MgCl2; 20 mM TRIS pH 8.0, 100 mM NaCl, 2 mM MgCl2, 1 mM DTT, 10% glycerol, 1 mM AMP-PNP; 25 ng RNA in 10 ul; 20 min on ice; 1.4% native agarose gel, 0.25x TBE, room temperature; conditions: protein: recombinant; tags: His6 removed by PreScission protease; label: none (SYBR gold stain); single strand
T7 sequence: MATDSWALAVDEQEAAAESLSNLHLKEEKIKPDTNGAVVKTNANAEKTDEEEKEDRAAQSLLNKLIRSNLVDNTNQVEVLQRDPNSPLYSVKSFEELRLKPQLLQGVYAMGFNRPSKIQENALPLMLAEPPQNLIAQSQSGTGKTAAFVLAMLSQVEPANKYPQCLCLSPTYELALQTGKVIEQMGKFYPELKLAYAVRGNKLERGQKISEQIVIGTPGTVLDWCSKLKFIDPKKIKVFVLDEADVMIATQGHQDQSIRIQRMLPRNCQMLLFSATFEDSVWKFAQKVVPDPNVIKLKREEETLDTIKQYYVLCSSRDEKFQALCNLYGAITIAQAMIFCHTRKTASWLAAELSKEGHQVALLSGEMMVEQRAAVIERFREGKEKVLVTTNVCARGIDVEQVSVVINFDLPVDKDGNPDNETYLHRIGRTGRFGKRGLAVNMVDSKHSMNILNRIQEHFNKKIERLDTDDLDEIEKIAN

T2 sequence (G0S381 441-557): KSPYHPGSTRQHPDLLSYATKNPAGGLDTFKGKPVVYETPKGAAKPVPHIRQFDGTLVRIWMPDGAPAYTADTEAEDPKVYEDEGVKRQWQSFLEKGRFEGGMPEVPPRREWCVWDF
T2 sequence (G0S7F3 216-529): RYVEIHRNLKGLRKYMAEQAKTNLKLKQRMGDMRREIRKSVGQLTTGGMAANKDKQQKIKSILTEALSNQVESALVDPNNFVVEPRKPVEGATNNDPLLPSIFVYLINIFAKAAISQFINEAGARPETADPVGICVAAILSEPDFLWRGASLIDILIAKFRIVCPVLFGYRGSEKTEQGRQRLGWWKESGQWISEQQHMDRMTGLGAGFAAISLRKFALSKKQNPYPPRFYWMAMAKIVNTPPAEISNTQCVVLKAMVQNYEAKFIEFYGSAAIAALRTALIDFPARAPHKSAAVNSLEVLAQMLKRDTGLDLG

With `O=P(O)(O)O[C@H]1[C@H](OP(=O)(O)O)[C@@H](OP(=O)(O)O)[C@H](OP(=O)(O)O)[C@@H](OP(=O)(O)O)[C@H]1OP(=O)(O)O` [IP6] the “size exclusion chromatography, complex formation” value [1] was “Dbp5 and Gle1^CTD•Nup42^GBM only formed a complex in the presence of IP6”, the “X-ray crystal structure (2.17 Å)” value [2] was “IP6 binds to C. thermophilum Gle1^CTD and to S. cerevisiae Gle1^CTD in a similar orientation” and the Kd [3] was about 3 nM. The Tm (S. cerevisiae Gle1^CTD) was 22 to 37 °C.

B1: SUMO-Gle1^N (SUMO fusion of human Gle1 residues 2–33) (domain or fragment, UniProt Q53GS7 2-33, looked up)
chain: PSEGRCWETLKALRSSDKGRLCYYRDWLLRRE
notes: human Gle1 (splice variant Gle1B), N-terminal residues 2-33; No cleavage of the His6-SUMO tag is described for this construct; also called His6-SUMO-hsGle1^N; source: E. coli BL21-CodonPlus(DE3)-RIL, purified (Ni-NTA, HiTrap Q, Superdex 200); not shown: SUMO, N-terminal, kept
B1: binds (GST-Nup155^CTD); binds [4].

B2: 53-nt ssRNA probe (ssRNA)
RNA: GUUUUUUUUUUUUUUUUUUUUCUCGAUCCGUAGUGAUCUACUGAGCAUCUCCC
B2: binds (DDX19 (wild type)).
